Entries after “also recorded” stand apart in the source; their conditions may differ. Read-outs that look alike come from different tables or passages of the source.
Legend:
[1] = Pharmacokinetic study in C57Bl6 mice; assay type: in vivo, C57/Bl6 mice; settings: 30 mg/kg i.p.; for Cmax: mouse, ip
Experimental: Animals were administered vehicle (1% n-methyl-2-pyrrolidone (NMP) with 0.5% Tween 80 in 0.5% carboxymethyl cellulose (CMC) in water) or compound 14b dissolved in the same vehicle (30 mg/kg, i.p.), and were euthanized at the appropriate timepoints by isoflurane overdose with decapitation. Trunk blood and brains were taken at 15, 30, 60, 120, and 240 min post-injection. Blood was collected in 5 mL tubes that had been preloaded with 0.5 M EDTA so that the final concentration would be approximately 5 mM. Blood/EDTA was centrifuged at 1000× g at 4 °C for 10 min. Plasma was collected and flash-frozen on dry ice and stored at −80 °C until analysis.
Stock solutions of 14b were prepared and diluted serially to generate standard curve and quality control spiking solutions. The concentrations in plasma and brain homogenate for 14b were 0.5, 1, 5, 10, 50, 100, 500, and 1000 ng/mL for standard curves.
Brains were weighed and homogenized at 1:5 (wt:vol) with 50:50 ethanol:water using a Geno/Grinder 2010 (SPEXSamplePrep, Metuchen, NJ, USA) twice at 1750 rpm for 30 s. Subsequently, 50 µL of plasma or brain homogenate was mixed with 150 µL of acetonitrile containing reserpine as internal standard (100 ng/mL) in a 96-well plate. The plate was shaken at 700 rpm for 3 min and then centrifuged at 4000 rpm for 10 min at 4 C. Then, 50 µL of supernatant was mixed with 50 µL of water in a new plate and analyzed by LC/MS-MS.
A SCIEX Exion AD UHPLC system (Framingham, MA) was used to inject 10 µL of the processed samples/calibration standards onto a Waters Acquity BEH C18 (2.1 mm × 100 mm, […]) column (Milford, MA). Mobile phase A consisted of 0.1% formic acid in water, and mobile phase B consisted of 0.1% formic acid in acetonitrile. […] Quantitation was achieved by multiple reaction monitoring in positive ion mode using an SCIEX 6500+ (Framingham, MA) QTRAP mass spectrometer. Compound 14b was quantitated by monitoring the transition of m/z 445.044 → 251.1, and the internal standard, reserpine, was monitored by m/z 609.300 → 194.9. […]

[2] = Glutathione incubation assay; assay type: physicochemical; settings: 2 mM compound, 18 mM glutathione, MeCN/water, up to 48 h, LC/MS
Experimental: For the glutathione incubation assay, 20 mM stock solutions of compound 14b in MeCN (400 µL) and glutathione GSH in MeCN: Milli-Q H2O (10 mL, 1: 1, v/v) were prepared in separate scintillation vials. To prepare the incubation solution, 100 µL of 14b solution and 900 µL of GSH solution were taken in a clean HPLC vial. The final concentrations of 14b and GSH were 2 mM and 18 mM, respectively. In addition, a 2 mM reference solution of 14b was prepared by adding 100 µL of 14b stock solution to an HPLC vial containing 900 µL of MeCN: H2O (1:1), and an 18 mM reference solution of GSH was prepared by adding 900 µL of GSH stock solution to an HPLC vial containing 100 µL of MeCN.
Low-resolution mass spectra were obtained using an Agilent InfinityLab MSD single quadrupole mass spectrometer system (ESI). […] Chromatograms were detected using 254 and 280 nm wavelengths with 5 µL injections and data were processed using a general walkup method*.
*LC/MS Walkup Method: an Agilent InfinityLab MSD single quadrupole mass spectrometer equipped with an API-ES and an Agilent Infinity II 1260 HPLC equipped with an Agilent Infinity 1260 variable wavelength detector and a Phenomenex Synergi […] Hydro-RP 100A C18 30 × 2 mm column. […] MS Method: using atmospheric pressure ionization–electrospray, positive and negative ions were monitored in the range of 70–700 or 200–2000 (for compounds with a MW > 700).

Q: What does the source list for `CC(C)CC1(c2ccccc2)OC(=O)C2=C1CN(C(=O)NCc1ccccc1)CC2` (single isomer, unassigned; (+)) [Compound 14b, (+) N-benzyl-3-(2-methylpropyl)-1-oxo-3-phenyl-1H,3H,4H,5H,6H,7H-furo[3,4-c]pyridine-5-carboxamide]?
A: Clearance in plasma [1]: 288 mL/min/kg; Cmax ([1]; brain, read-out: Cmax in brain): 186 ng/mL; Cmax ([1]; plasma, read-out: Cmax in plasma): 1940 ng/mL; Glutathione adduct formation [2]: No glutathione adduct was identified; also recorded: stable
